Read-outs that look alike come from different tables or passages of the source.
How the values were obtained:
[1] = tested on: convulsions induced by electrical stimulation (maximal electroshock); assay: Maximal electroshock test (MES), 50 mA electrical stimulation; format: in vivo, mice; conditions: Mus musculus, ip, read-out: Anticonvulsive activity ED50, MES
Text: (§1) The anticonvulsive effect of the compounds was studied on three types of experimental epilepsy. Convulsions were induced in mice by subcutaneous administration of pentylene tetrazole or strychnine, or by electrical stimulation with a 50 mA current (E. A. Swinyard, Assay of antiepileptic drug activity in experimental animals: Standard tests in International Enocyclopedica of Pharmacology and Therapeutics, Section 19, vol 1: Anticonvulsant Drugs, 1972). […] No sedative effect could be observed.
MES = maximal electroshock test

[2] = tested on: convulsions induced by pentylene tetrazole; assay: Metrazole (pentylene tetrazole) convulsant threshold test (MET); format: in vivo, mice; conditions: Mus musculus, ip, read-out: Anticonvulsive activity ED50, MET
Text: as §1
MET = metrazole (= pentylene tetrazole) convulsant threshold test.

[3] = tested on: convulsions induced by strychnine; assay: Strychnine convulsant threshold test (STR); format: in vivo, mice; conditions: Mus musculus, ip, read-out: Anticonvulsive activity ED50, STR
Text: as §1
STR = strychnine convulsant threshold test

[4] = tested on: arrhythmia in guinea-pigs after infusion of ouabain; assay: Ouabain-induced arrhythmia in guinea-pigs; conditions: for Ouabain dose ± SE, inducing arrhythmia / Ouabain dose ± SE, inducing asystole: ouabain 20 μg/kg/min.
Text: Arrhythmia was induced by K^+ deficiency and by aconitine. […] Besides the above-described in vitro tests, an in vivo method was used: the antiarrhythmic effect of the compounds was studied in quineapigs with ouabain-induced arrhythmia.

bacteria = conditions: cited from earlier work
[5] = tested on: hexobarbiturate-induced sleep in mice; assay: Hexobarbiturate-induced sleep; format: in vivo
[6] = tested on: convulsions induced by pentylene tetrazole, strychnine or electrical stimulation; assay: Anticonvulsive effect in three types of experimental epilepsy; format: in vivo, mice; conditions: in words
Text: as §1

arrhythmia = assay: Antiarrhythmic effect (general statement); conditions: in words
Text: Isolated perfused rat heart, prepared after the method of Langendorff, and isolated spontaneously beating rat atria (W. C. Holland & J. H. Burn, J. Brit. Med., vol 1, 1031, 1958) were used for studies of the antiarrhythmic effect of the compounds. Arrhythmia was induced by K^+ deficiency and by aconitine. […] Besides the above-described in vitro tests, an in vivo method was used: the antiarrhythmic effect of the compounds was studied in quineapigs with ouabain-induced arrhythmia.

[7] = injectable forms; cited from earlier work
[8] = mice, intraperitoneal; cited from earlier work
experimental epilepsy = conditions: several types of experimental epilepsy; cited from earlier work
epileptic patients = conditions: cited from earlier work
[9] = mice, maximal electroshock test
[10] = mice, metrazole convulsant threshold test
[11] = O-value (initial), group dosed 12 mg/kg iv
[12] = O-value (initial), group dosed 3 mg/kg iv
[13] = O-value (initial), group dosed 6 mg/kg iv

| Structure (SMILES) | ED50 [1, 9] [mg/kg] | ED50 [2, 10] [mg/kg] | ED50 [3] [mg/kg] | HR ± SE, 5 min. after adm. of test compound ([4]; 3 mg/kg iv) [beats/min.] | Ouabain dose ± SE, inducing arrhythmia ([4]; 3 mg/kg iv) [µg/kg] | Ouabain dose ± SE, inducing asystole ([4]; 3 mg/kg iv) [µg/kg] | HR ± SE, 5 min. after adm. of test compound ([4]; 6 mg/kg iv) [beats/min.] | Ouabain dose ± SE, inducing arrhythmia ([4]; 6 mg/kg iv) [µg/kg] | Ouabain dose ± SE, inducing asystole ([4]; 6 mg/kg iv) [µg/kg] | HR ± SE, O-value [4, 12] [beats/min.] | HR ± SE, O-value [4, 13] [beats/min.] | other results |
| --- | --- | --- | --- | --- | --- | --- | --- | --- | --- | --- | --- | --- |
| NS(=O)(=O)CCN1C(=O)c2ccccc2C1=O [2-Phthalimidoethanesulfone amide, 2-phthalimidoethane sulfonamide] | 122 | > 300 | 93 |  |  |  |  |  |  |  |  | HR ± SE, 5 min. after adm. of test compound ([4]; 12 mg/kg iv): 330 beats/min.; Ouabain dose ± SE, inducing arrhythmia ([4]; 12 mg/kg iv): 170 µg/kg; Ouabain dose ± SE, inducing asystole ([4]; 12 mg/kg iv): 220 µg/kg; HR ± SE, O-value [4, 11]: 333 beats/min.; Antibacterial properties (bacteria): did not come up to expectations |
| CN(C)S(=O)(=O)CCN1C(=O)c2ccccc2C1=O [2-Phthalimidoethanesulfone dimethylamide, 2-phthalimidoethanesulfone dimethylamide] | 113 | 231 | 234 |  |  |  |  |  |  |  |  | Antibacterial properties (bacteria): did not come up to expectations |
| CCNS(=O)(=O)CCN1C(=O)c2ccccc2C1=O [2-Phthalimidoethanesulfone ethylamide] | 103 | 138 | 126 | 332 ± 16 | 175 ± 5 | 318 ± 22 | 270 | 150 | 360 | 332 ± 22 | 285 |  |
| CC(C)NS(=O)(=O)CCN1C(=O)c2ccccc2C1=O [2-Phthalimidoethanesulfone isopropylamide] |  |  | 227 | 312 ± 27 | 197 ± 32 | 297 ± 27 | 291 | 155 | 290 | 321 ± 39 | 303 | ED50 [1]: 130 mg/kg; ED50 [2]: > 300 mg/kg |
| CNS(=O)(=O)CCN1C(=O)c2ccccc2C1=O [2-Phthalimidoethanesulfone methylamide] | 112 | 170 | 189 |  |  |  | 255 ± 51 | 188 ± 17 | 345 ± 20 |  | 261 ± 45 | HR ± SE, 5 min. after adm. of test compound ([4]; 12 mg/kg iv): 399 ± 22 beats/min.; Ouabain dose ± SE, inducing arrhythmia ([4]; 12 mg/kg iv): 195 ± 15 µg/kg; Ouabain dose ± SE, inducing asystole ([4]; 12 mg/kg iv): 265 ± 50 µg/kg; HR ± SE, O-value [4, 11]: 369 ± 30 beats/min. |
| CCCCNS(=O)(=O)CCN1C(=O)c2ccccc2C1=O [2-Phthalimidoethanesulfone n-butylamide] | 219 | > 300 |  | 213 | 175 | 340 | 256 ± 43 | 200 ± 0 | 382 ± 37 | 210 | 256 ± 19 |  |
| CCCNS(=O)(=O)CCN1C(=O)c2ccccc2C1=O [2-Phthalimidoethanesulfone n-propylamide] | 252 | > 300 | > 300 | 294 ± 45 | 160 ± 10 | 322 ± 62 |  |  |  | 286 ± 55 |  | HR ± SE, 5 min. after adm. of test compound ([4]; 2 mg/kg iv): 243 ± 18 beats/min.; Ouabain dose ± SE, inducing arrhythmia ([4]; 2 mg/kg iv): 165 ± 10 µg/kg; Ouabain dose ± SE, inducing asystole ([4]; 2 mg/kg iv): 272 ± 27 µg/kg; HR ± SE, O-value ([4]; O-value (initial), group dosed 2 mg/kg iv): 229 ± 34 beats/min. |
| O=C1c2ccccc2C(=O)N1CCS(=O)(=O)N1CCCC1 [2-Phthalimidoethanesulfone pyrrolidide] | > 300 | > 300 |  |  |  |  |  |  |  |  |  |  |
| CC(C)(C)NS(=O)(=O)CCN1C(=O)c2ccccc2C1=O [2-Phthalimidoethanesulfone tert-butylamide] | > 300 | > 300 |  |  |  |  |  |  |  |  |  |  |
| CC(=O)NS(=O)(=O)CCN1C(=O)c2ccccc2C1=O [2-Phthalimidoethanesulfonyl acetamide, 2-phthalimidoethanesulfonyl acetamide] | > 300 | > 300 |  | 259 ± 10 | 215 ± 24 | 355 ± 20 | 334 ± 11 | 212 ± 16 | 345 ± 26 | 260 ± 9 | 329 ± 15 | HR ± SE, 5 min. after adm. of test compound ([4]; 1 mg/kg iv): 316 ± 10 beats/min.; Ouabain dose ± SE, inducing arrhythmia ([4]; 1 mg/kg iv): 185 ± 5 µg/kg; Ouabain dose ± SE, inducing asystole ([4]; 1 mg/kg iv): 307 ± 2 µg/kg; HR ± SE, 5 min. after adm. of test compound ([4]; 12 mg/kg iv): 349 ± 19 beats/min.; Ouabain dose ± SE, inducing arrhythmia ([4]; 12 mg/kg iv): 210 ± 16 µg/kg; Ouabain dose ± SE, inducing asystole ([4]; 12 mg/kg iv): 360 ± 13 µg/kg; HR ± SE, O-value ([4]; O-value (initial), group dosed 1 mg/kg iv): 292 ± 1 beats/min.; HR ± SE, O-value [4, 11]: 329 ± 19 beats/min.; Prolongation of hexobarbiturate-induced sleep [5]: did not prolong the time of sleep; Anticonvulsive effect [6]: no anticonvulsive effect; Antiarrhythmic effect (arrhythmia): had an antiarrhythmic |
| CC(=O)NCCS(=O)(=O)O [N-acetyl taurine] |  |  |  |  |  |  |  |  |  |  |  | Penetration of the blood-brain barrier [7]: penetrate the bloodbrain barrier |
| CC(C)(C)C(=O)NCCS(=O)(=O)O [N-pivaloyl taurine] |  |  |  |  |  |  |  |  |  |  |  | Penetration of the blood-brain barrier [8]: penetrated the blood-brain barrier |
| CC(C)NCC(O)COc1cccc2ccccc12 (stereo not drawn) [Propranolol, reference compound] |  |  |  |  | 295 ± 35 | 435 ± 24 |  | 269 ± 39 | 418 ± 34 |  |  | Ouabain dose ± SE, inducing arrhythmia ([4]; 1 mg/kg iv): 240 ± 5 µg/kg; Ouabain dose ± SE, inducing asystole ([4]; 1 mg/kg iv): 363 ± 11 µg/kg; HR ± SE, O-value ([4]; guinea pig, in vivo, iv, 1 mg/kg): 280 ± 17 beats/min.; HR ± SE, O-value ([4]; guinea pig, in vivo, iv, 3 mg/kg): 293 ± 17 beats/min.; HR ± SE, O-value ([4]; guinea pig, in vivo, iv, 6 mg/kg): 301 ± 10 beats/min.; Bradycardia ([4]; guinea-pigs): caused bradycardia |
| NCCS(=O)(=O)O [Taurine, 2-aminoethanesulfonic acid] |  |  |  |  |  |  |  |  |  |  |  | Direct central anticonvulsive effect (experimental epilepsy): direct central anticonvulsive effect; Antiepileptic action (epileptic patients): antiepileptic action |

Reference: patent publication US4556673A, “Use of phthalyltaurine sulfonamide derivatives in treating epilepsy and arrythmia” (priority 1980, dated 1985)
